The nature of this data set: Human HepG2 cell viability assay in 384 well format. Type of data set: toxicity, cell-based. Also noted: dose 125 nL, time 70.5 hour; cytotoxicity at 70.5 h: concentration not given beside the values. The note with it: HepG2 cells, read-out: Inhibition.

These results are taken from ChEMBL document CHEMBL3507680, “University of Dundee, Gates Library screen for HepG2 cell viability”.

Each structure is given as a SMILES string.

With `CC(C)c1nnc2n1CCN(C(=O)c1ccnc(-n3ccnc3)c1)C2`, the cytotoxicity at 70.5 h was determined as 19.7%.
For the compound `CC(C)c1nnc2n1CCN(C(=O)c1ccc3c(c1)CCC3)C2`, the cytotoxicity at 70.5 h is 0.826%.
Regarding `CS(=O)(=O)c1cccc(C(N)c2ccc(F)cc2)c1` (stereo not drawn), the cytotoxicity at 70.5 h was -3.93%.
`CS(=O)(=O)c1cccc(C(N)c2ccc(Cl)cc2)c1` (stereo not drawn): the cytotoxicity at 70.5 h is -4.71%.
For `COc1ncccc1C(=O)N1CCC(Nc2ccc(C)nn2)CC1`, the cytotoxicity at 70.5 h was -4.22%.
On to `Cc1nc(CN(C)C2CCN(CCc3cnn(C)c3)C2)no1` (stereo not drawn), for which the cytotoxicity at 70.5 h came to 18.2%.
With `Cc1cnc(CN2CCCC(c3cc(C)[nH]n3)C2)cn1` (stereo not drawn), the cytotoxicity at 70.5 h came to 15.7%.
With `CC(=O)N(Cc1ncc(C)o1)C1CCN(CCc2cnn(C)c2)C1` (stereo not drawn), the cytotoxicity at 70.5 h is -11.2%.
On to `CC(C)c1cnc(CN(C)C2CCN(CCc3cnn(C)c3)C2)o1` (stereo not drawn), for which the cytotoxicity at 70.5 h is -5.18%.
Regarding `Cc1nc(CN2CCCN(Cc3nccn3C(C)C)CC2)no1`, the cytotoxicity at 70.5 h is -15.2%.
Consider `Cc1nc(C)n(CC2CCCN2Cc2cn3ccccc3n2)n1` (stereo not drawn), for which the cytotoxicity at 70.5 h was -14.7%.
As for `Cc1cccc2nc(CN3CCCC3Cn3cncn3)cn12` (stereo not drawn), the cytotoxicity at 70.5 h was -17%.
In the case of `O=C(Cc1ccccc1)NCCNC(=O)c1scnc1Cl`, the cytotoxicity at 70.5 h is -9.54%.
Take `O=C(COc1ccccc1)NCCNC(=O)c1scnc1Cl`: the cytotoxicity at 70.5 h is -11.8%.
As to `Cc1csc(N2CCCN(C(=O)c3ccoc3C)CC2)n1`, the cytotoxicity at 70.5 h is -4.74%.
On to `Cc1cccc2nc(CN3CCCC3Cn3cccn3)cn12` (stereo not drawn), for which the cytotoxicity at 70.5 h was -10.8%.
`CCc1ncc(C(=O)N2CCC(Nc3ccc(C)nn3)CC2)s1`: the cytotoxicity at 70.5 h was -8.02%.
In the case of `CCc1ncc2c(n1)CN(CC(=O)Nc1cccnc1)CC2`, the cytotoxicity at 70.5 h amounted to 10.9%.
The result for `COc1cc(S(=O)(=O)N2CCc3ccc(Cl)cc32)cc(C(=O)O)c1OC` reads -8.43%; that for `CCc1ncc2c(n1)CN(C(C)C(=O)Nc1ccc(Cl)cn1)CC2` (stereo not drawn), 20.7%.
As for `CC(C)c1ncc2c(n1)CN(CC(=O)Nc1ccc(Cl)cn1)CC2`, the cytotoxicity at 70.5 h is -10.8%.
As for `Cc1ccc(-c2nnc(CN3CCn4c(nnc4C4CC4)C3)o2)cc1`, the cytotoxicity at 70.5 h was -8.76%.
Turning to `OC(COCc1ccco1)CN1CCc2c(ncn2C2CC2)C1` (stereo not drawn), the cytotoxicity at 70.5 h worked out at 1.85%.
For `Cc1cc(CNC(=O)CN2CCCC(Cn3cncn3)C2)ccc1F` (stereo not drawn), the cytotoxicity at 70.5 h amounted to 3.75%.
`CCc1noc(C(C)N2CCC(N3CCCCC3)CC2)n1` (stereo not drawn): the cytotoxicity at 70.5 h was -6.88%.
In the case of `CN(C(=O)Cc1cccs1)C1CCN(c2ccccn2)CC1`, the cytotoxicity at 70.5 h was -5.49%.
Regarding `Cc1ccccc1CCNC(=O)CN1CCCC(Cn2cncn2)C1` (stereo not drawn), the cytotoxicity at 70.5 h was -3.82%.
As to `CC(=O)NCCNC(=O)CN1CCCC(Cn2cncn2)C1` (stereo not drawn), the cytotoxicity at 70.5 h was -4.84%.
Turning to `Cc1nn(-c2ccccc2)cc1C(=O)N1CCCC(n2ccnc2C)C1` (stereo not drawn), the cytotoxicity at 70.5 h was -4.52%.
In the case of `COc1cccc(CNC(=O)CN2CCCC(Cn3cncn3)C2)c1` (stereo not drawn), the cytotoxicity at 70.5 h is -1.72%.
The same measure for `O=C(CN1CCCC(Cn2cncn2)C1)NCc1ccccc1F` (stereo not drawn): -4.63%; for `O=C(CCc1cscn1)N1CCCC(n2cncn2)C1` (stereo not drawn): 10.8%; for `Cc1ccc(CNC(=O)CN2CCCC(Cn3cncn3)C2)cc1` (stereo not drawn): -2.99%.
On to `Cc1cc(C)n(CC2CCCCN2C(=O)c2ccc3c(c2)COC3)n1` (stereo not drawn), for which the cytotoxicity at 70.5 h came out at 2.1%.
The same measure for `CN(Cc1ccc(N2CCOCC2)cc1)C(=O)Cn1cccnc1=O`: -3.91%; for `CCN1CCN(C(=O)NCc2cccnc2-n2cccn2)CC1`: 10.5%.
With `Cc1ccc(OCC(O)CN2CCc3c(ncn3C3CC3)C2)cc1` (stereo not drawn), the cytotoxicity at 70.5 h is -4.79%.
With `Cc1cnn(C2CCCN(C(=O)c3cn(-c4ccccc4)nc3C)C2)c1` (stereo not drawn), the cytotoxicity at 70.5 h is -6.2%.
Consider `Cc1cnn(CC2CCCCN2CCCS(=O)(=O)N(C)C)c1` (stereo not drawn), for which the cytotoxicity at 70.5 h came out at 18.7%.
Turning to `CCNc1cc2c(nn1)CCN(C(=O)c1cc(C)no1)C2`, the cytotoxicity at 70.5 h was -3.88%.
As to `Cc1cnn(CC2CCCCN2CCS(C)(=O)=O)c1` (stereo not drawn), the cytotoxicity at 70.5 h was -1.02%.
The result for `Cc1nn(C)cc1C(=O)N1CCCC(n2cncn2)C1` (stereo not drawn) reads -9.27%.
Consider `CCNc1cc2c(nn1)CCN(C(=O)c1cc3cccc(C)c3o1)C2`, for which the cytotoxicity at 70.5 h was -2.31%.
The same measure for `Cc1cnc(CN(C)C2CCN(Cc3nc4ccccc4o3)C2)o1` (stereo not drawn): 15.3%; for `COc1ncccc1CNC(=O)c1ccco1`: 18%; for `Cc1noc(C)c1C(=O)NCc1ccc(N2CCCCCC2)nc1`: -6.77%.
For `CCN1CCN(c2ccc(CNC(=O)c3sccc3C)cn2)CC1`, the cytotoxicity at 70.5 h was -9.08%.
In the case of `CC(Cn1cccn1)NC(=O)NCc1cccnc1OC(C)C` (stereo not drawn), the cytotoxicity at 70.5 h is -4.84%.
Turning to `Cc1noc(C)c1C(=O)NCc1ccc(N2CCOCC2)nc1`, the cytotoxicity at 70.5 h is -8.43%.
The result for `CCN1CCN(c2ccc(CNC(=O)Cc3c(C)noc3C)cn2)CC1` reads -10.4%.
As for `COc1ncccc1CNC(=O)NCc1ccco1`, the cytotoxicity at 70.5 h is -1.48%.
In the case of `CC(C)(C)c1n[nH]c(C2CN(C(=O)CCC3CC3)CCO2)n1` (stereo not drawn), the cytotoxicity at 70.5 h was -9.78%.
Consider `CCn1ccnc1CN1CCN(CC(O)Cn2cccn2)CC1` (stereo not drawn), for which the cytotoxicity at 70.5 h was -10.4%.
For the compound `CC(O)CN1CCC(CNCc2ccccc2OC(F)(F)F)CC1` (stereo not drawn), the cytotoxicity at 70.5 h was found to be 2.51%.
With `CNc1cc(N2CCCC2CNCc2cnc(C)cn2)ncn1` (stereo not drawn), the cytotoxicity at 70.5 h is -8.09%.
The result for `CCn1ccnc1CNCC1CCN(CC(O)c2ccccc2)CC1` (stereo not drawn) reads -11%; that for `c1cnnc(N2CCCC2CNCc2ccsc2)c1` (stereo not drawn), -10.1%.
The result for `c1cnnc(N2CCCC2CNCc2nc(-c3ccsc3)no2)c1` (stereo not drawn) reads -20.3%; that for `COCCN1CC(C(=O)NCc2ccnc(-n3cccn3)c2)CC1=O` (stereo not drawn), -6.88%.
As for `Cc1cc(C)n(CC2CCCN2CCS(=O)(=O)c2ccccc2)n1` (stereo not drawn), the cytotoxicity at 70.5 h was -24.2%.
`CCc1nc(C2CCCN2C(=O)c2ccoc2C)no1` (stereo not drawn): the cytotoxicity at 70.5 h was -9.91%.
In the case of `CC(C)=CCN1CCOC(Cn2nc(C)cc2C)C1` (stereo not drawn), the cytotoxicity at 70.5 h was 15.4%.
For the compound `CC(C)Cc1noc(CN2CCN(CCOc3ccc(Cl)cc3)CC2)n1`, the cytotoxicity at 70.5 h is -10.1%.
As for `CC(Cn1ccnc1)NC(=O)NCCc1ccccn1` (stereo not drawn), the cytotoxicity at 70.5 h is -0.19%.
The result for `Fc1ccc(OCc2noc(CN3CCc4cncnc4C3)n2)cc1` reads -4.28%.
The result for `Cc1nc(C)n(CC2CCCN(CC(=O)Nc3c(C)n[nH]c3C)C2)n1` (stereo not drawn) reads -7.16%; that for `Cc1noc2ncc(C(=O)NCC3CCOC3)cc12` (stereo not drawn), 22%.
With `Cn1nccc1CNC(=O)Nc1cc(C(F)(F)F)c[nH]c1=O`, the cytotoxicity at 70.5 h was -7.39%.
`COc1cccc(OCCNCc2c(C)nn(C)c2N(C)C)c1`: the cytotoxicity at 70.5 h is -4.8%.
The result for `Cc1ccccc1-c1cc(C(=O)N2CCn3c(C)nnc3C2)[nH]n1` reads 0.102%.
Turning to `CCOCC(O)CN1CCN(C(=O)c2ccccc2Cl)CC1` (stereo not drawn), the cytotoxicity at 70.5 h was -2.72%.
In the case of `Cc1ccc(NC2CCN(C(=O)c3ccc(Cl)o3)CC2)nn1`, the cytotoxicity at 70.5 h was found to be 34.4%.
Consider `Cc1n[nH]c(C)c1NC(=O)CN1CCCC(CNC(=O)C(C)(C)C)C1` (stereo not drawn), for which the cytotoxicity at 70.5 h was determined as 2.09%.
In the case of `CCc1noc(C(C)N2CCN(Cc3nc(C)c(C)o3)CC2)n1` (stereo not drawn), the cytotoxicity at 70.5 h was found to be 23.9%.
In the case of `Cn1cc(CN2CCCN(C(=O)c3cc(Cl)cn3C)CC2)cn1`, the cytotoxicity at 70.5 h was 38.5%.
`CN(C(=O)NCCCN1CCCC1)C1CCN(c2ccccc2)C1=O` (stereo not drawn): the cytotoxicity at 70.5 h came out at 4.81%.
The same measure for `O=C(Nc1cn[nH]c1)c1ccc(O)nc1`: 1.6%; for `Cc1noc(C)c1C(=O)NCc1ccnc(OCC(F)(F)F)c1`: -0.701%.
`Cc1cc(CN(C)C(=O)NC2CCCN(c3ncccn3)C2)no1` (stereo not drawn): the cytotoxicity at 70.5 h was -3.61%.
For `CN(CC1COc2ccccc2O1)C(=O)NCCCn1cncn1` (stereo not drawn), the cytotoxicity at 70.5 h is -4.69%.
Regarding `O=C(Nc1nccs1)N(CCO)Cc1ccsc1`, the cytotoxicity at 70.5 h was found to be 1.52%.
Turning to `Cc1cc(C)n(-c2ccc(CNCc3ccc(OC(C)C)cc3)cn2)n1`, the cytotoxicity at 70.5 h was -0.102%.
For the compound `Cc1ccc(C)c(OC2CCN(C(=O)c3ccc(C)[nH]c3=O)CC2)c1`, the cytotoxicity at 70.5 h was -11%.
As for `O=C(Nc1ccccn1)N(CCO)Cc1ccsc1`, the cytotoxicity at 70.5 h stood at 4.99%.
With `CCN(CC)C(=O)Cn1ccc2cc(NC(=O)C3CC3)ccc21`, the cytotoxicity at 70.5 h was determined as 7.86%.
As for `Cc1nc(C)c(CC(=O)Nc2ncc(C)s2)c(=O)[nH]1`, the cytotoxicity at 70.5 h was -1.19%.
Consider `Cc1cccc(OCCC(=O)NCC(C)(C)C(N)=O)c1`, for which the cytotoxicity at 70.5 h was found to be 5.99%.
The same measure for `O=C(CCc1cnn(-c2ccccc2)c1)N1CCCC(n2cccn2)C1` (stereo not drawn): 6.67%.
With `CC(C)(CNC(=O)NCCOc1cccc(F)c1)C(N)=O`, the cytotoxicity at 70.5 h was -1.08%.
As to `Cc1cc(CC(=O)NCc2ccnc(OCC(F)(F)F)c2)no1`, the cytotoxicity at 70.5 h is 34%.
On to `Cc1ncc(CNC(=O)N(C)C2CCN(c3ccccc3)C2=O)s1` (stereo not drawn), for which the cytotoxicity at 70.5 h came to 3.88%.
With `CN1CCCC1CNC(=O)CCCOc1ccc(F)cc1` (stereo not drawn), the cytotoxicity at 70.5 h was 0.0711%.
`COc1cccc(COCC(=O)N2CCCC(N3CCCC3)CC2)c1` (stereo not drawn): the cytotoxicity at 70.5 h turned out to be 3.21%.
Take `CN(CC1COc2ccccc2O1)C(=O)NCCCn1ccnc1` (stereo not drawn): the cytotoxicity at 70.5 h amounted to 33.9%.
Regarding `COc1cccc(COCC(=O)N2CCN(CC(C)(C)O)CC2)c1`, the cytotoxicity at 70.5 h worked out at 4.32%.
The result for `Cc1cccc(-c2nc(CN3CCCCC3Cn3cncn3)no2)c1` (stereo not drawn) reads -4.62%.
The result for `Cc1cccc2c1OCCC2NCc1c(C)nn(C)c1N(C)C` (stereo not drawn) reads 35%.
Take `O=C(CN1CCC(c2cccc(F)c2)C1)NCc1ccco1` (stereo not drawn): the cytotoxicity at 70.5 h worked out at 59.3%.
For the compound `O=C(NCCCn1cncn1)N1CCCC(N2CCCC2)C1` (stereo not drawn), the cytotoxicity at 70.5 h was -4.6%.
Consider `CCC1CCCN(C(=O)Cc2csc(-c3ncccn3)n2)C1` (stereo not drawn), for which the cytotoxicity at 70.5 h came to 36.3%.
Regarding `CC(C(=O)N1CCCN(Cc2ccc(C#N)cc2)CC1)n1ccnc1` (stereo not drawn), the cytotoxicity at 70.5 h is 0.793%.
Consider `COC(=O)CN(C)C1CCc2ccccc21` (stereo not drawn), for which the cytotoxicity at 70.5 h is -4.82%.
As to `Cc1nc(C2CCCN2CCCNS(C)(=O)=O)no1` (stereo not drawn), the cytotoxicity at 70.5 h was -0.166%.
